Measured values as given in patent US8450308B2 (Vitae Pharmaceuticals, Inc., priority 2008, dated 2013).

Biological target: T1, truncated human beta-secretase (residues 1-458, His6-tagged at the C-terminus) (Homo sapiens, UniProt P56817)
T1 construct: truncated human beta-secretase (residues 1-458, His6-tagged at the C-terminus); His6 (C); made in house; host or cells: insect cells D. melanogaster S2 (baculovirus expression system (so in the source))
Test: BACE fluorescence quench assay
Assay type: biochemical
Settings: in vitro enzyme activity, BACE fluorescence assay, pH 4.5; read-out: IC50

T1 sequence (P56817 22-458): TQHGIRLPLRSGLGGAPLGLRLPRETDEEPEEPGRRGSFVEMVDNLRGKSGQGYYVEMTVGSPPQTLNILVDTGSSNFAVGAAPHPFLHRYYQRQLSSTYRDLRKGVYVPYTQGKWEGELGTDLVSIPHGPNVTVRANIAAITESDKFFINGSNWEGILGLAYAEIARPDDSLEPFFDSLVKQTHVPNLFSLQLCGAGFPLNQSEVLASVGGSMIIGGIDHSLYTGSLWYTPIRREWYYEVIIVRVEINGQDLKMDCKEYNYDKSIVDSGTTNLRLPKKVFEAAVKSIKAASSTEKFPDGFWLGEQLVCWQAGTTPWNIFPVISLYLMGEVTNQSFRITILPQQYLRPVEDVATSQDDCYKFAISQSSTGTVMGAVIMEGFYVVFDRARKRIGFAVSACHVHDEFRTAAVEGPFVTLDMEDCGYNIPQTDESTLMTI

Row | SMILES | IC50 [nM]
1 | CN1OC2(CC(c3ccccc3)Oc3cc(F)c(-c4cccnc4F)cc32)N=C1N (centres unmarked) [Compound 104, 7-fluoro-6-(2-fluoropyridin-3-yl)-2′-methyl-2-phenyl-2′H-spiro[chroman-4,5′-[1,2,4]oxadiazol]-3′-amine] | 5000 to 10000
2 | CN1OC2(CC(c3ccncc3)Oc3ccc(-c4cccc(C#N)c4)cc32)N=C1N (centres unmarked) [Compound 105, 3-(3′-amino-2′-methyl-2-(pyridin-4-yl)-2′H-spiro[chroman-4,5′-[1,2,4]oxadiazole]-6-yl)benzonitrile] | 5000 to 10000
3 | CN1OC2(CC(c3ccccn3)Oc3ccc(-c4cccc(C#N)c4)cc32)N=C1N (centres unmarked) [Compound 106, 3-(3′-amino-2′-methyl-2-(pyridin-2-yl)-2′H-spiro[chroman-4,5′-[1,2,4]oxadiazole]-6-yl)benzonitrile] | 5000 to 10000
4 | CN1OC2(CC(c3ccc(OC(F)(F)F)cc3)Oc3ccc(-c4cccc(C#N)c4)cc32)N=C1N (centres unmarked) [Compound 107, 3-(3′-amino-2′-methyl-2-(4-(trifluoromethoxy)phenyl)-2′H-spiro[chroman-4,5′-[1,2,4]oxadiazole]-6-yl)benzonitrile] | 10000 to 50000
5 | CN1OC2(CC(c3ccccc3)Oc3ccc(Oc4ccccc4)cc32)N=C1N (centres unmarked) [Compound 108, 2′-methyl-6-phenoxy-2-phenyl-2′H-spiro[chroman-4,5′-[1,2,4]oxadiazol]-3′-amine] | 10000 to 50000
6 | CN1OC2(CC3(CCCCC3)Oc3ccc(-c4cccc(C#N)c4)cc32)NC1=N (centres unmarked) [Compound 118, 3-(3″-Imino-2″-methylspiro[spiro(chroman-2,1″-cyclohexane)-4,5′-[1,2,4]oxadiazolidine]-6-yl)benzonitrile] | 1000 to 5000
7 | CN1OC2(CC3(CCCOC3)Oc3ccc(-c4cccc(F)c4)cc32)N=C1N (centres unmarked) [Compound 119] | 1000 to 5000
8 | CCC1CCC2(C1)CC1(N=C(N)N(C)O1)c1cc(-c3cccc(C#N)c3)ccc1O2 (centres unmarked) [Compound 120] | 1000 to 5000
9 | CC(C)C1CCC2(C1)CC1(N=C(N)N(C)O1)c1cc(-c3cccc(C#N)c3)ccc1O2 (centres unmarked) [Compound 121] | 1000 to 5000
10 | CN1OC2(CC3(CCCOC3)Oc3ccc(C4CCCCC4)cc32)N=C1N (centres unmarked) [Compound 122] | 1000 to 5000
11 | CN1OC2(CC3(COC(C)(C)OC3)Oc3ccc(-c4cccc(C#N)c4)cc32)N=C1N (centres unmarked) [Compound 123, 3-(3″-imino-2″-methylspiro[spiro(chroman-2,1′-(4,4-dimethyl-3,5-dioxane))-4,5″-[1,2,4]oxadiazolidine]-6-yl)benzonitrile] | 5000 to 10000
12 | CCOc1cccc(-c2ccc3c(c2)C2(CC4(CCCOC4)O3)N=C(N)N(C)O2)c1 (centres unmarked) [Compound 124] | 5000 to 10000
13 | CC1CCC2(C1)CC1(N=C(N)N(C)O1)c1cc(-c3cccc(C#N)c3)ccc1O2 (centres unmarked) [Compound 125] | 5000 to 10000
14 | CCCOc1cccc(-c2ccc3c(c2)C2(CC4(CCCOC4)O3)N=C(N)N(C)O2)c1 (centres unmarked) [Compound 126] | 5000 to 10000
15 | CN1O[C@@]2(C[C@@]3(CCC(C(C)(C)C)C3)Oc3ccc(-c4cccc(C#N)c4)cc32)N=C1N (some centres unmarked) [Compound 127a] | 5000 to 10000
16 | CN1O[C@@]2(C[C@]3(CCC(C(C)(C)C)C3)Oc3ccc(-c4cccc(C#N)c4)cc32)N=C1N (some centres unmarked) [Compound 127b] | 5000 to 10000
17 | COCCCOc1cccc(-c2ccc3c(c2)C2(CC4(CCCOC4)O3)N=C(N)N(C)O2)c1 (centres unmarked) [Compound 128] | 10000 to 50000
18 | COCCOc1cccc(-c2ccc3c(c2)C2(CC4(CCCOC4)O3)N=C(N)N(C)O2)c1 (centres unmarked) [Compound 129] | 10000 to 50000
19 | CN1OC2(CC3(CCCOC3)Oc3ccc(Oc4ccccc4)cc32)N=C1N (centres unmarked) [Compound 130] | 10000 to 50000

Results, then the compound that gave them:

Row | IC50 [nM] | SMILES
20 | 100 to 500 | CN1OC2(N=C1N)c1cc(-c3cccc(C#N)c3)ccc1OC1(CCCOC1)C2F (centres unmarked) [Compound 109]
21 | 100 to 500 | CN1OC2(CC3(CCCOC3)Oc3ccc(-c4cccc(Cl)c4)cc32)N=C1N (centres unmarked) [Compound 110]
22 | 100 to 500 | CC1C2(CCCOC2)Oc2ccc(-c3cccc(C#N)c3)cc2C12N=C(N)N(C)O2 (centres unmarked) [Compound 111]
23 | 500 to 1000 | CN1OC2(N=C1N)c1cc(-c3cccc(C#N)c3)ccc1OC1(CCCOC1)C2(F)F (centres unmarked) [Compound 112]
24 | 500 to 1000 | CN1O[C@@]2(C[C@]3(CCOC3)Oc3ccc(-c4cccc(C#N)c4)cc32)N=C1N [Compound 113b]
25 | 500 to 1000 | CN1OC2(CC3(CCCCOC3)Oc3ccc(-c4cccc(C#N)c4)cc32)N=C1N (centres unmarked) [Compound 114]
26 | 500 to 1000 | CN1OC2(CC3(CCOCC3)Oc3ccc(-c4cccc(C#N)c4)cc32)N=C1N (centres unmarked) [Compound 115]
27 | 1000 to 5000 | CN1OC2(CC3(CCCOCC3)Oc3ccc(-c4cccc(C#N)c4)cc32)N=C1N (centres unmarked) [Compound 116]
28 | 1000 to 5000 | CN1OC2(CC3(CCCOC3)Oc3ccc(-c4cccc(C#N)c4)cc32)N=C1N (centres unmarked) [Compound 117]
29 | 100 to 500 | CN1C(=O)[C@@]2(C[C@@]3(CCCOC3)Oc3ccc(-c4cc(Cl)cc(Cl)c4)cc32)N=C1N [Compound 281]
30 | 100 to 500 | CN1C(=O)C2(CC(C3CCOC(C)(C)C3)Oc3ccc(-c4cc(C#N)ccc4C(F)(F)F)cc32)N=C1N (centres unmarked) [Compound 284]
31 | 100 to 500 | CN1O[C@@]2(C[C@@H]([C@@H]3CCOC(C)(C)C3)Oc3ccc(-c4cccc(C#N)c4)cc32)N=C1N [Compound 285]
32 | 100 to 500 | CN1C(=O)[C@@]2(C[C@@]3(CCCOC3)Oc3ccc(-c4cccc(Cl)c4)cc32)N=C1N [Compound 289]
33 | 100 to 500 | CN1C(=O)C2(CC3(CCCOC3)Oc3ccc(-c4cccc(C#N)c4F)cc32)N=C1N (centres unmarked) [Compound 291]
34 | 100 to 500 | Cc1ccc(C#N)cc1-c1ccc2c(c1)C1(CC(C3CCOC(C)(C)C3)O2)N=C(N)N(C)O1 (centres unmarked) [Compound 292]
35 | 100 to 500 | CSc1cccc(-c2ccc3c(c2)[C@]2(C[C@]4(CCCOC4)O3)N=C(N)N(C)C2=O)c1 [Compound 296]
36 | 100 to 500 | CN1C(=O)C2(CC(C3CCOC(C)(C)C3)Oc3ccc(-c4cc(F)ccc4F)cc32)N=C1N (centres unmarked) [Compound 300]
37 | 100 to 500 | Cc1cccc(-c2ccc3c(c2)C2(CC4(CCCOC4)O3)N=C(N)N(C)C2=O)c1 (centres unmarked) [Compound 301]
38 | 100 to 500 | CN1C(=O)[C@@]2(C[C@@]3(CCCOC3)Oc3ccc(-c4cc(C#N)cc(C(F)(F)F)c4)cc32)N=C1N [Compound 304]
39 | 100 to 500 | COc1ccc(OC)c(-c2ccc3c(c2)[C@]2(C[C@]4(CCCOC4)O3)N=C(N)N(C)C2=O)c1 [Compound 307]
40 | 100 to 500 | CN1C(=O)[C@@]2(C[C@@]3(CCCOC3)Oc3ccc(-c4cc(C#N)cc(C#N)c4)cc32)N=C1N [Compound 309]
41 | 100 to 500 | CN1C(=O)[C@@]2(C[C@@]3(CCCOC3)Oc3ccc(-c4ccc(F)c(Cl)c4)cc32)N=C1N [Compound 310]
42 | 100 to 500 | CN1OC2(C[C@H]([C@H]3CCOC(C)(C)C3)Oc3ccc(-c4cccc(C#N)c4F)cc32)N=C1N (some centres unmarked) [Compound 312]
43 | 100 to 500 | CN1OC2(CC3(Cc4ccccc4C3)Oc3ccc(-c4cccc(C#N)c4)cc32)N=C1N (centres unmarked) [Compound 315]
44 | 100 to 500 | CN1C(=O)C2(C[C@]3(CCCOC3)Oc3ccc(-c4cccc(Br)c4)cc32)N=C1N (some centres unmarked) [Compound 318]
45 | 100 to 500 | CC1CC(C2CC3(N=C(N)N(C)O3)c3cc(-c4cccc(C#N)c4)ccc3O2)CC(C)O1 (centres unmarked) [Compound 319]
46 | 100 to 500 | COc1ccc(OC)c(-c2ccc3c(c2)[C@]2(C[C@@]4(CCCOC4)O3)N=C(N)N(C)C2=O)c1 [Compound 321]
47 | 100 to 500 | CN1C(=O)[C@@]2(C[C@@]3(CCCOC3)Oc3ccc(-c4cccc(C(F)(F)F)c4)cc32)N=C1N [Compound 325]
